Results published in patent US9006426B2, “Squaric acid derivatives as inhibitors of the nicotinamide” (Topotarget A/S, priority 2008, dated 2015).
Counter-ions that a name gives are not always drawn.

tested on: A2780 cells; experiment: In vitro cell proliferation assay (WST-1 assay); type: cell-based; conditions: Homo sapiens, total incubation time 72 h, WST-1 reagent
Method: In Vitro Cell Proliferation Assay (WST-1 Assay)
A2780 cells were seeded in 96-well plates at 3×10^3 cells/well in 100 μL of culture medium, 8 wells were left empty for media only controls.
After 24 h the compound titrations were performed, in a separate dilution plate, by serially diluting the compounds of general formula (I) in culture medium. A 100 μL of each dilution was added to the plated cells, this was done in triplicate, and controls (e.g. DMSO and blanks) were included. The plates were incubated for 24 h at 37° C. in a CO2 incubator. The compound titrations were repeated in a separate dilution plate after 24 h. The media plus compound from the assay plates were then aspirated. A 100 μL of media was then added to all wells, followed by 100 μL of each compound dilution. The plates were incubated for a further 48 h at 37° C. in a CO2 incubator (total incubation time 72 h). The number of viable cells was then assessed using Cell Proliferation Reagent WST-1. 10 μL of WST-1 reagent added to each well and incubated for one to four hours at 37° C. in CO2 incubator. The absorbance was measured (450 nm/690 nm).
The activity of compounds of general formula (I) in reducing the number of viable cells was calculated as: % activity=[(S^c−B)/(S^o−B)]×100
S^c denotes signal measured in the presence of test compound, S^o denotes signal detected in the absence of compound, and B denotes background signal, measured in blank wells containing medium only. Analyse data using GraphPad Prism.
Results can be seen in Table 1, wherein IC50 is the concentration giving 50% activity.

Row | SMILES | IC50 [nM]
1 | O=c1c(NCCCCCCS(=O)(=O)N(Cc2ccccc2)OCCC2CCCCC2)c(Nc2ccncc2)c1=O [Compound 1010, N-benzyl-N-(2-cyclohexylethoxy)-6-(3,4-dioxo-2-(pyridin-4-ylamino)cyclobut-1-enylamino)hexane-1-sulfonamide] | 0.93
2 | CN(OCCC1CCCCC1)S(=O)(=O)CCCCCCNc1c(Nc2ccncc2)c(=O)c1=O [Compound 1011, N-(2-cyclohexylethoxy)-6-(3,4-dioxo-2-(pyridin-4-ylamino)cyclobut-1-enylamino)-N-methylhexane-1-sulfonamide] | 0.085
3 | O=C(CCCCCCCNc1c(Nc2ccncc2)c(=O)c1=O)N(Cc1ccccc1)OCCN1CCOCC1 [Compound 1018, N-benzyl-8-(3,4-dioxo-2-(pyridin-4-ylamino)cyclobut-1-enylamino)-N-(2-morpholinoethoxy)octanamide] | 0.26
4 | O=c1c(NCCCCCCS(=O)(=O)N(CCCN2CCOCC2)CCN2CCOCC2)c(Nc2ccncc2)c1=O [Compound 1019, 6-(3,4-dioxo-2-(pyridin-4-ylamino)cyclobut-1-enylamino)-N-(2-morpholinoethyl)-N-(3-morpholinopropyl)hexane-1-sulfonamide] | 26
5 | O=C(OCCCCCNc1c(Nc2ccncc2)c(=O)c1=O)N(OCCN1CCOCC1)C1CCCCC1 [Compound 1026, 5-(3,4-dioxo-2-(pyridin-4-ylamino)cyclobut-1-enylamino)pentyl cyclohexyl(2-morpholinoethoxy)carbamate] | 0.6
6 | CN(C1CCCCCC1)S(=O)(=O)CCCCCCNc1c(Nc2ccncc2)c(=O)c1=O [Compound 1027, N-cycloheptyl-6-(3,4-dioxo-2-(pyridin-4-ylamino)cyclobut-1-enylamino)-N-methylhexane-1-sulfonamide] | 0.08
7 | O=c1c(NCCCCCCS(=O)(=O)N2CCCCCC2)c(Nc2ccncc2)c1=O [Compound 1030, 3-(6-(azepan-1-ylsulfonyl)hexylamino)-4-(pyridin-4-ylamino)cyclobut-3-ene-1,2-dione] | 0.53
8 | O=C(CCCCCCNc1c(Nc2cccnc2)c(=O)c1=O)N(OCCN1CCOCC1)C1CCCCC1 [Compound 1033, N-cyclohexyl-7-(3,4-dioxo-2-(pyridin-3-ylamino)cyclobut-1-enylamino)-N-(morpholinoethoxy)heptanamide] | 0.6
9 | CC(C)N(OCCN1CCOCC1)S(=O)(=O)CCCCCCNc1c(Nc2ccncc2)c(=O)c1=O [Compound 1047, 6-(3,4-dioxo-2-(pyridin-4-ylamino)cyclobut-1-enylamino)-N-isopropyl-N-(2-morpholinoethoxy)hexane-1-sulfonamide] | 0.12
10 | O=c1c(NCCCCCCCS(=O)(=O)N(OCCN2CCOCC2)C2CCCCC2)c(Nc2ccncc2)c1=O [Compound 1052, N-Cyclohexyl-7-(3,4-dioxo-2-(pyridin-4-ylamino)cyclobut-1-enylamino)-N-(2-morpholinoethoxy)heptane-1-sulfonamide] | 0.3
11 | O=c1c(NCCCCCCS(=O)(=O)N(OCCN2CCOCC2)C2CCCCCC2)c(Nc2ccncc2)c1=O [Compound 1060, N-cycloheptyl-6-(3,4-dioxo-2-(pyridin-4-ylamino)cyclobut-1-enylamino)-N-(2-morpholinoethoxy)hexane-1-sulfonamide] | 0.69
12 | O=c1c(NCCCCCCS(=O)(=O)N(CCN2CCOCC2)C2CCCCC2)c(Nc2ccncc2)c1=O [Compound 1067, N-cyclohexyl-6-(3,4-dioxo-2-(pyridin-4-ylamino)cyclobut-1-enylamino)-N-(2-morpholinoethyl)hexane-1-sulfonamide] | 1.13
13 | CCOP(=O)(CCCCCCNc1c(Nc2ccncc2)c(=O)c1=O)NC1CCCCC1 (centres unmarked) [Compound 1068, Ethyl N-cyclohexyl-P-(6-(3,4-dioxo-2-(pyridin-4-ylamino)cyclobut-1-enylamino)hexyl)phosphonimidate] | 0.18
14 | O=c1c(NCCCCCCS(=O)(=O)N(CCN2CCOCC2)OCc2ccccc2)c(Nc2ccncc2)c1=O [Compound 1077, N-(benzyloxy)-6-(3,4-dioxo-2-(pyridin-4-ylamino)cyclobut-1-enylamino)-N-(2-morpholinoethyl)hexane-1-sulfonamide] | 0.066
15 | O=c1c(NCCCCCCS(=O)(=O)N(CCN2CCOCC2)c2ccc(Cl)cc2)c(Nc2ccncc2)c1=O [Compound 1080, N-(4-chlorophenyl)-6-(3,4-dioxo-2-(pyridin-4-ylamino)cyclobut-1-enylamino)-N-(2-morpholinoethyl)hexane-1-sulfonamide] | 0.66

Further lines, results first:

Row | IC50 [nM] | SMILES
16 | 0.03 | O=C(CCCCCCNc1c(Nc2ccncc2)c(=O)c1=O)N(OCCN1CCOCC1)C1CCCCC1 [Compound 1007, N-cyclohexyl-7-(3,4-dioxo-2-(pyridin-4-ylamino)cyclobut-1-enylamino)-N-(2-morpholinoethoxy)heptanamide]
17 | 0.48 | COCCOCCOCCN(OCCC1CCCCC1)S(=O)(=O)CCCCCCNc1c(Nc2ccncc2)c(=O)c1=O [Compound 1008, N-(2-cyclohexylethoxy)-6-(3,4-dioxo-2-(pyridin-4-ylamino)cyclobut-1-enylamino)-N-(2-(2-(2-methoxyethoxy)ethoxy)ethyl)hexane-1-sulfonamide]
18 | 0.43 | O=c1c(NCCCCCCS(=O)(=O)N(CCN2CCOCC2)OCCC2CCCCC2)c(Nc2ccncc2)c1=O [Compound 1009, N-(2-cyclohexylethoxy)-6-(3,4-dioxo-2-(pyridin-4-ylamino)cyclobut-1-enylamino)-N-(2-morpholinoethyl)hexane-1-sulfonamide]
19 | 0.56 | O=C(CCCCCCNc1c(Nc2ccncc2)c(=O)c1=O)N(Cc1ccccc1)OCCN1CCOCC1 [Compound 1016, N-benzyl-7-(3,4-dioxo-2-(pyridin-4-ylamino)cyclobut-1-enylamino)-N-(2-morpholinoethoxy)heptanamide]
20 | 0.25 | O=c1c(NCCCCCCS(=O)(=O)N(CCN2CCOCC2)C2CCCCCC2)c(Nc2ccncc2)c1=O [Compound 1021, N-cycloheptyl-6-(3,4-dioxo-2-(pyridin-4-ylamino)cyclobut-1-enylamino)-N-(2-morpholinoethyl)hexane-1-sulfonamide]
21 | 41.3 | O=c1c(NCCCCCCS(=O)(=O)N2CCOCC2)c(Nc2ccncc2)c1=O [Compound 1031, 3-(6-(morpholinosulfonyl)hexylamino)-4-(pyridin-4-ylamino)cyclobut-3-ene-1,2-dione]
22 | 4.49 | O=C(NCCCCCNc1c(Nc2ccncc2)c(=O)c1=O)N(OCCN1CCOCC1)C1CCCCC1 [Compound 1039, 1-cyclohexyl-3-(5-(3,4-dioxo-2-(pyridin-4-ylamino)cyclobut-1-enylamino)pentyl)-1-(2-morphinethoxy)urea]
23 | 1.19 | O=c1c(NCCCCCCS(=O)(=O)N(CCCN2CCOCC2)C2CCCCC2)c(Nc2ccncc2)c1=O [Compound 1050, N-Cyclohexyl-6-(3,4-dioxo-2-(pyridin-4-ylamino)cyclobut-1-enylamino)-N-(3-morpholinopropyl)hexane-1-sulfonamide]
24 | 0.45 | O=c1c(NCCCCCCS(=O)(=O)N(OCCN2CCOCC2)C2CCCCC2)c(Nc2ccncc2)c1=O [Compound 1051, N-Cyclohexyl-6-(3,4-dioxo-2-(pyridin-4-ylamino)cyclobut-1-enylamino)-N-(2-morpholinoethoxy)hexane-1-sulfonamide oxalate]
25 | 0.5 | O=c1c(NCCCCCS(=O)(=O)N(OCCN2CCOCC2)C2CCCCC2)c(Nc2ccncc2)c1=O [Compound 1053, N-Cyclohexyl-5-(3,4-dioxo-2-(pyridin-4-ylamino)cyclobut-1-enylamino)-N-(2-morpholinoethoxy)pentane-1-sulfonamide]
26 | 0.75 | O=c1c(NCCCCCCS(=O)(=O)N(OCCN2CCOCC2)C2CCCC2)c(Nc2ccncc2)c1=O [Compound 1058, N-cyclopentyl-6-(3,4-dioxo-2-(pyridin-4-ylamino)cyclobut-1-enylamino)-N-(2-morpholinoethoxy)hexane-1-sulfonamide]
27 | 0.42 | O=c1c(NCCCCCCS(=O)(=O)N(CCCN2CCOCC2)C2CCC2)c(Nc2ccncc2)c1=O [Compound 1062, N-cyclobutyl-6-(3,4-dioxo-2-(pyridin-4-ylamino)cyclobut-1-enylamino)-N-(3-morpholinopropyl)hexane-1-sulfonamide]
28 | 0.25 | CN(OCc1ccccc1)S(=O)(=O)CCCCCCNc1c(Nc2ccncc2)c(=O)c1=O [Compound 1076, N-(benzyloxy)-6-(3,4-dioxo-2-(pyridin-4-ylamino)cyclobut-1-enylamino)-N-methylhexane-1-sulfonamide]
29 | 0.42 | O=c1c(NCCCCCS(=O)(=O)N(OCCN2CCOCC2)C2CCCC2)c(Nc2ccncc2)c1=O [Compound 1078, N-cyclopentyl-6-(3,4-dioxo-2-(pyridin-4-ylamino)cyclobut-1-enylamino)-N-(2-morpholinoethoxy)pentane-1-sulfonamide]
